The values below come from the NIST ThermoML archive (doi:10.1016/j.jct.2017.12.022).

The conditions of series [1]: Crystal; DTA.
A short description of series [2]: Molar enthalpy of transition or fusion. The following applies: Crystal; DSC.

Numbers after ± are expanded uncertainties.

`COC(=O)c1ccc(C(=O)OC)cc1` [dimethyl 1,4-benzenedicarboxylate]: in series [1], the Normal melting temperature was 140.8 ± 1 °C. Further, the “Molar enthalpy of transition or fusion” value in series [2] came to 8.48 ± 0.191 kcal/mol.
